The source of these data is publication PMC7756784 (Chemistry (Weinheim an Der Bergstrasse, Germany), 2020).

In this assay the target is human galectin-1 (Gal-1) (Homo sapiens, UniProt P09382). Briefly: ITC, single-site model. Format: binding. To be noted: 50 mM sodium phosphate, 150 mM NaCl, pH 7.4, 1 mM TCEP.
human galectin-1 (Gal-1), sequence (P09382 2-135): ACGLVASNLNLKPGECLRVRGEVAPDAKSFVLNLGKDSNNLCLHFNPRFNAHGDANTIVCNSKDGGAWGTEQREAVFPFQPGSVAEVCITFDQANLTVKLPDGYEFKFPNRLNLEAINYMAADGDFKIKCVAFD

As for `CC(=O)N[C@H]1C(O)O[C@H](CO)[C@@H](O[C@@H]2O[C@H](CO)[C@H](O)[C@H](O)[C@H]2O[C@@H]2O[C@@H](C)[C@@H](O)[C@@H](O)[C@@H]2O)[C@@H]1O` (some centres unmarked) [compound 3, H type‐II], the affinity, expressed as Kd, was 319 µM.

`CC(=O)N[C@H]1C(O)O[C@H](CO)[C@@H](O[C@@H]2O[C@H](CO)[C@H](O)[C@H](O[C@H]3O[C@H](CO)[C@H](O)[C@H](O)[C@H]3O)[C@H]2O[C@@H]2O[C@@H](C)[C@@H](O)[C@@H](O)[C@@H]2O)[C@@H]1O` (some centres unmarked) [compound 4, B type‐II] yielded a dissociation constant (Kd) of 379 µM.
